This is an account of results in patent US20250265708A1, “METHOD AND SYSTEM FOR CONTRACTILITY ASSESSMENT OF CARDIAC ORGANOIDS BASED ON PARTICLE IMAGE VELOCIMETRY, PROGRAM FOR THE SAME, AND RECORDING MEDIUM STORING PROGRAM THEREOF” (Research & Business Foundation SUNGKYUNKWAN UNIVERSITY, priority 2024, published 2025).

The test deals with cardiac organoid. In words: Drug reaction experiment: PIV-based contractility analysis of cardiac organoid treated with isoprenaline. It counts as cell-based, human. An excerpt:
Specifically, isoprenaline, which is a widely used […] (inotropic agent), is used to assess contractility of a cardiac organoid in response to drugs. […] As a result, the contraction-relaxation velocity profile and beating image of the cardiac organoids before drug treatment may be confirmed as shown in FIG. 10A and FIG. 10B, after drug treatment as shown in FIG. 10C and FIG. 10D, and 1 day after drug withdrawal as shown in FIG. 10E and FIG. 10F.

Setting [1] is: cardiac organoid, after treating for 15 minutes with isoprenaline, vs before drug treatment.

Take `CC(C)NCC(O)c1ccc(O)c(O)c1` (stereo not shown) [isoprenaline]: the “heart beating of the organoid” value (1 day after drug withdrawal) was “returned to before the drug treatment”. Also, under setting [1], the average contraction duration result was “reduced” and the “contraction time to peak” value was “reduced”. Besides, the heart beating rate result (cardiac organoid, after treating for 15 minutes with isoprenaline, vs before drug treatment (24.3±3.22 BPM)) is “increased significantly”.
